Measurements from patent publication US8258099B2, “Pin1-modulating compounds and methods of use thereof” (Max-Planck-Gesellschaft zur Foerderung der Wissenschaften …, priority 2004, dated 2012).
Square brackets hold non-standard residues; d marks the D form. Peptide text beside a SMILES is read from it. * marks the point of attachment. Biotin = O=C1N[C@H]2[C@H](CS[C@H]2CCCCC(=O)*)N1; d(pT) = C[C@H](OP(=O)(O)O)[C@@H](N)C(=O)O; 2Nal = N[C@@H](Cc1ccc2ccccc2c1)C(=O)O; Bta = N[C@@H](Cc1csc2ccccc12)C(=O)O; Pip = O=C(O)[C@@H]1CCCCN1

Key:
[1] = Stability against cellular phosphatases and proteases in HeLa cell lysate; format: in vitro ADME; details: discussion statement (FIG. 4)
Description: FIG. 4 depicts the stability of peptide 17 against cellular phosphatases and proteases. Peptide 17 was incubated for 3 hours in HeLa cell lysate in the absence of phosphatase and protease inhibitors. The mixture was then analyzed by capillary electrophoresis (short dashed line). As controls, the untreated peptide 17 (solid line) and its nonphosphorylated derivative (dotted line) were used. The temperature of the capillary thermostating system was kept at 16° C. Separation buffer was 50 mM sodium phosphate, pH 7.0. Signals were detected at 220 nm.
Peptide 17 was incubated with HeLa cell lysate for 3 h and analyzed with capillary electrophoresis using UV detection at 220 nm on a P/ACE MDQ (Beckman Coulter, Palo Alto, Calif.) system. Fused-silica capillaries (Polymicro Technologies) of 40 cm length at an operation voltage of 20 kV were used. As references, untreated peptide 17 and its nonphosphorylated derivative were used. The samples were hydrodynamically injected with 3.45 kPa for 10 s. 50 mM sodium phosphate buffer (pH 7.0) was used as separation buffer. The system temperature was kept at 16° C.
The stability of peptides 15 and 17 in cytoplasmic extracts from HeLa cells was investigated using MALDI-TOF mass spectrometry and capillary electrophoresis, respectively. In the cytosolic incubation mixture, streptavidin sepharose beads served to isolate peptide 15 fragments after prolonged incubation. […] Therefore, phosphopeptides are useless for evaluating Pin1 functions in vivo unless dephosphorylation can be avoided.

authentic XlPin1 = test: Pull down assay, X. laevis embryo lysate; format: binding; details: no phosphatase inhibitors, streptavidin sepharose
Description: (§1) FIGS. 5A-B depict pull down assays showing peptide 16 binds to authentic XlPin1 (A) and hPin1 from HeLa cells (B). FIG. 5A depicts the indicated concentrations of peptide 16 were incubated with X. laevis embryo extract in the absence of phosphatase inhibitors. Peptide 16/XlPin1-complex was then extracted from the respective mixture using streptavidin sepharose. Samples were analyzed regarding coextracted XlPin1 by SDS PAGE followed by western blot analysis. Untreated lysate (input) was loaded as a control. Authentic XlPin1 was detected using an anti hPin1 PPIase domain antiserum followed by incubation with a horseradish peroxidase-conjugated secondary antibody. Visualization was done using the SuperSignal® substrate. FIG. 5B indicates concentrations of peptide 16 were incubated with HeLa cell lysate in the absence of phosphatase inhibitors. The peptide 16/hPin1-complex was then precipitated from the respective mixture using streptavidin sepharose and isolated from the supernatant. Extracted proteins and the supernatants were then analyzed by SDS PAGE. […] After western blotting, hPin1 was detected using an anti hPin1 PPIase domain antiserum as primary antibody and a horseradish peroxidase-conjugated secondary antibody. […]
(§2) Peptide 16 (see Table III) was incubated with HeLa cell or X. laevis embryo lysate for 1 hour at 4° C. […] The samples were then heated to 95° C. and analyzed by SDS PAGE. […]

authentic hPin1 = target: T1, authentic hPin1 (Homo sapiens, UniProt Q13526); test: Pull down assay, HeLa cell lysate; format: binding; details: streptavidin sepharose
T1 construct: endogenous in cells; host or cells: HeLa cell lysate
Description: as §1, §2

X. laevis embryos = test: Microinjection in X. laevis embryos, cell division; format: in vivo; details: microinjection at stage 2
Description: FIG. 8 depicts the blocking of cell division by the injection of peptide 17 in X. laevis embryos. 50-300 pmol of peptide 17 or 300 pmol of its nonphosphorylated derivative (control) dissolved in 10 nl PBS buffer were microinjected in the animal half of X. laevis embryos at stage 2 of development. Embryos with large and/or apoptotic appearing cells surrounded by normally developing cells were counted after further 5 hours (stage 8-9) of development. […] Each value is the average of four independent experiments.
FIGS. 9A-F depicts phenotypic analysis of X. laevis embryos after injection of peptide 17. 300 pmol of peptide 17 or its nonphosphorylated derivative dissolved in 10 nl PBS buffer were injected in the animal half of X. laevis embryos at stage 2 of development. 1.5 hour at stage 6 (A), 2.5 hours at stage 7 (B) and 4-5 hours at stage 8-9 (C, D) after injection enlarged cells became visible. Cells that are blocked in cell division are marked with a white arrow. Controls of uninjected embryos of stage 8-9 and embryos that were injected with 300 pmol of the nonphosphorylated derivative of peptide 17 are shown in panels E and F. The site where the nonphosphorylated derivative of peptide 17 was injected is marked with a white arrow (F).
FIGS. 10A-D depict the rescue of peptide 17 caused cell division block in X. laevis embryos by hPin1 (A, B) and different hPin1 variants (C, D). FIG. 10A depicts the time course of V5-tagged hPin1 expression was analyzed by preparation of X. laevis embryo lysate 1, 2 and 4 hours after injection of 1, 2 or 3 ng of V5-tagged hPin1 mRNA. In every case, the injected volume was 10 nl. Lysates were prepared in lysis buffer containing phosphatase and protease inhibitors. Samples were separated by SDS PAGE followed by western blotting. Endogenous XlPin1 and V5-tagged hPin1 were detected using an anti hPin1 PPIase domain antiserum as primary antibody followed by incubation with a horseradish peroxidase-conjugated secondary antibody. Visualization was done using the SuperSignal® substrate. […] In every case, the whole volume of injection was 10 nl. The indicated amount of the mRNA was injected in the animal half of 30 embryos at stage 2 of development. Embryos with large and/or apoptotic appearing cells surrounded by normally developed cells were counted after additional 5 hours of development (stage 8-9). […] Each percentage of vital embryos shown in the figure is the average of four independent experiments. FIG. 10C indicates the expression of V5-tagged hPin1 variants was evaluated by preparation of embryo lysate after 4 hours of injection of the respective mRNA (2 ng) in X. laevis embryos. Lysates were prepared in lysis buffer containing phosphatase and protease inhibitors. Samples were separated using SDS PAGE followed by western blot analysis. Endogenous XlPin1 and injected V5-tagged hPin1 variants were detected using an anti hPin1 PPIase domain antiserum as primary antibody and a horseradish peroxidase-conjugated secondary antibody. Visualization was done by a chemiluminescent reaction using the SuperSignal® substrate (Pierce). FIG. 10D depicts 250 pmol of peptide 17 was coinjected with 2 ng mRNA of the indicated V5-tagged hPin1 variant (whole volume 10 nl) in the animal half of 30 X. laevis embryos at stage 2 of development. Results were analyzed as described for FIG. 10B. Each percentage of vital embryos shown in the figure is the average of four independent experiments.
Microinjection was done into the animal half of X. laevis embryos at stage 2 of development. In every case, the injection volume was 10 nl. Immunofluorescence studies of frozen X. laevis embryo sections were performed as previously described (Julius et al., 2000). Ten-micrometer cryosections of stage 8 embryos were labelled using a monoclonal anti hPin1 antibody (mouse) followed by incubation with Alexa Fluor 546™-conjugated anti mouse antibody of goat serum (Molecular Probes). […]

endogenous XlPin1 = test: Immunofluorescence of microinjected X. laevis embryos; format: in vivo; details: stage 8
Description: FIG. 11 depicts the colocalization of peptide 16 and endogenous XlPin1 in X. laevis embryos. 100 pmol and 250 pmol of peptide 16 dissolved in 10 nl PBS buffer were injected in X. laevis embryos at stage 2 of development. In a control experiment, 10 nl of the pure PBS buffer were injected. Embryos were fixed at stage 8, embedded and cryosectioned. Peptide 16 is stained in green using the Oregon Green™ 488-labeled NeutrAvidin biotin-binding protein. Endogenous XlPin1 is stained in red using a monoclonal anti hPin1 antibody (mAb hPin1) from mouse and an Alexa Fluor 546™-conjugated secondary antibody. Overlapping patterns are shown in yellow in the merged images. Nuclei are stained with DAPI.
Microinjection was done into the animal half of X. laevis embryos at stage 2 of development. In every case, the injection volume was 10 nl. Immunofluorescence studies of frozen X. laevis embryo sections were performed as previously described (Julius et al., 2000). Ten-micrometer cryosections of stage 8 embryos were labelled using a monoclonal anti hPin1 antibody (mouse) followed by incubation with Alexa Fluor 546™-conjugated anti mouse antibody of goat serum (Molecular Probes). […] Samples were analyzed using an Axioplan epifluorescence microscope with fluorescein and Cy3 selective filter sets. […]

T1 sequence (Q13526 whole entry): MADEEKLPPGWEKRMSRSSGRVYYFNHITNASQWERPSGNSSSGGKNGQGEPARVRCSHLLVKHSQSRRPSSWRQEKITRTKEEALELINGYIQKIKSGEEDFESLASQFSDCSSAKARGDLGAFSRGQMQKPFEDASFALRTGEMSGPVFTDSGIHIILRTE

CC(=O)N[C@@H](CCCCNC(=O)CCCC[C@@H]1SC[C@@H]2NC(=O)N[C@@H]21)C(=O)N[C@@H](C)C(=O)N[C@@H](C)C(=O)N[C@@H](Cc1csc2ccccc12)C(=O)N[C@@H](C(=O)N1CCCC[C@H]1C(=O)N[C@@H](Cc1ccc2ccccc2c1)C(=O)N[C@@H](CCC(N)=O)C(N)=O)[C@H](C)OP(=O)(O)O [Peptide 16, Ac-Lys(N^ε-biotinoyl)-Ala-Ala-Bth-D-Thr(PO3H2)-Pip-Nal-Gln-NH2] (Ac-K(Biotin)AA[Bta][d(pT)][Pip][2Nal]Q-NH2)
stability in cytosol [1]: sufficiently stable
coprecipitation of authentic XlPin1 (authentic XlPin1): coprecipitated with peptide 16 in a dose-dependent manner
pull down of authentic hPin1 (authentic hPin1): pulled down
effect on development of the embryos (X. laevis embryos): cell cycle blockage and embryonic death
colocalization with XlPin1 (endogenous XlPin1; 100 pmol injected): clear nuclear colocalization
effect on embryonic tissue (endogenous XlPin1; 250 pmol injected): distortions of the embryonic tissue
